Test results: the supplement of paper PMC10307832

How the values were obtained:
Assay in all cases: relative viability (nuclei count vs DMSO), 5 days (fraction); higher = more cells survive
Tipifarnib = compound: Cn1cncc1[C@@](N)(c1ccc(Cl)cc1)c1ccc2c(c1)c(-c1cccc(Cl)c1)cc(=O)n2C [Tipifarnib]
In short: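 On vehicle-anchored 1536-well plates, lung cancer cell lines held overnight at 37 °C were pinned with five library-drug doses (not always all listed) spaced by √10. With no medium change over 5 days, they were then fixed, permeabilised and Hoechst-stained in one step and imaged at 4×. MetaXpress counted nuclei, and viability is the median across plates of treated-well over vehicle-well nuclei. Acceptance needed control CV below 25% and at least one doubling.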

Tipifarnib + Tozasertib = compound: Cn1cncc1[C@@](N)(c1ccc(Cl)cc1)c1ccc2c(c1)c(-c1cccc(Cl)c1)cc(=O)n2C [Tipifarnib] + Cc1cc(Nc2cc(N3CCN(C)CC3)nc(Sc3ccc(NC(=O)C4CC4)cc3)n2)n[nH]1 [Tozasertib] (partner 0.1 µM)
In short: (§1)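 Cells from lung cancer lines were seeded into 1536-well plates and, one day later, dosed by pin tool. Treatments were either a single drug or a fixed dose of an anchor drug with five library-drug doses (not always all listed) in √10 steps. After 5 days, nuclei were stained in a one-step fixation (final 0.05% Triton X-100, 1% formaldehyde, 1 ug/ml Hoechst) and counted on 4× images, and relative viability is the treated-to-vehicle nuclei ratio, as the median of duplicate plates.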

Tipifarnib + Trametinib = compound: Cn1cncc1[C@@](N)(c1ccc(Cl)cc1)c1ccc2c(c1)c(-c1cccc(Cl)c1)cc(=O)n2C [Tipifarnib] + CC(=O)Nc1cccc(-n2c(=O)n(C3CC3)c(=O)c3c(Nc4ccc(I)cc4F)n(C)c(=O)c(C)c32)c1 [Trametinib] (partner 0.02 µM)
In short: as §1

Tipifarnib + AZD7762 = compound: Cn1cncc1[C@@](N)(c1ccc(Cl)cc1)c1ccc2c(c1)c(-c1cccc(Cl)c1)cc(=O)n2C [Tipifarnib] + NC(=O)Nc1cc(-c2cccc(F)c2)sc1C(=O)N[C@H]1CCCNC1 [AZD7762] (partner 0.2 µM)
In short: as §1

| Cell Line | relative viability (Tipifarnib; 0.01 µM) | relative viability (Tipifarnib; 0.03162 µM) | relative viability (Tipifarnib; 0.1 µM) | relative viability (Tipifarnib; 0.3162 µM) | relative viability (Tipifarnib; 1 µM) | relative viability (Tipifarnib + Tozasertib; first compound 0.01 µM) | relative viability (Tipifarnib + Tozasertib; first compound 0.03162 µM) | relative viability (Tipifarnib + Tozasertib; first compound 0.1 µM) | relative viability (Tipifarnib + Tozasertib; first compound 0.3162 µM) | relative viability (Tipifarnib + Tozasertib; first compound 1 µM) | relative viability (Tipifarnib + Trametinib; first compound 0.01 µM) | relative viability (Tipifarnib + Trametinib; first compound 0.03162 µM) | relative viability (Tipifarnib + Trametinib; first compound 0.1 µM) | relative viability (Tipifarnib + Trametinib; first compound 0.3162 µM) | relative viability (Tipifarnib + Trametinib; first compound 1 µM) | relative viability (Tipifarnib + AZD7762; first compound 0.01 µM) | relative viability (Tipifarnib + AZD7762; first compound 0.03162 µM) | relative viability (Tipifarnib + AZD7762; first compound 0.1 µM) | relative viability (Tipifarnib + AZD7762; first compound 0.3162 µM) | relative viability (Tipifarnib + AZD7762; first compound 1 µM) |
| --- | --- | --- | --- | --- | --- | --- | --- | --- | --- | --- | --- | --- | --- | --- | --- | --- | --- | --- | --- | --- |
| NCI-H1755 | 1.02 | 1 | 0.976 | 0.955 | 0.826 | 0.741 | 0.584 | 0.639 | 0.518 | 0.569 | 0.793 | 0.732 | 0.718 | 0.723 | 0.714 | 0.411 | 0.453 | 0.416 | 0.365 | 0.395 |
| NCI-H2087 | 0.849 | 0.405 | 0.332 | 0.329 | 0.401 | 0.245 | 0.164 | 0.164 | 0.132 | 0.132 | 0.157 | 0.221 | 0.235 | 0.145 | 0.14 | 0.99 | 0.48 | 0.249 | 0.241 | 0.395 |
| NCI-H2228 | 1.06 | 0.844 | 0.687 | 0.606 | 0.553 | 0.24 | 0.164 | 0.223 | 0.174 | 0.235 | 0.542 | 0.378 | 0.385 | 0.303 | 0.177 |  |  |  |  |  |
| NCI-H727 | 1.16 | 1.11 | 0.876 | 0.685 | 0.645 | 0.809 | 0.598 | 0.624 | 0.608 | 0.444 | 0.425 | 0.395 | 0.379 | 0.384 | 0.404 | 0.613 | 0.608 | 0.519 | 0.504 | 0.571 |
| NCI-H650 | 0.855 | 0.922 | 0.733 | 0.695 | 0.368 | 0.791 | 0.612 | 0.498 | 0.576 | 0.379 | 1.09 | 0.911 | 0.841 | 0.696 | 0.549 | 1.39 | 1.17 | 0.77 | 0.667 | 0.429 |
| NCI-H520 | 1.02 | 0.9 | 0.947 | 0.658 | 0.504 | 0.404 | 0.4 | 0.348 | 0.335 | 0.336 | 0.87 | 0.642 | 0.7 | 0.521 | 0.315 |  |  |  |  |  |
| EBC-1 | 0.837 | 0.383 | 0.353 | 0.257 | 0.259 |  |  |  |  |  |  |  |  |  |  |  |  |  |  |  |
| NCI-H661 | 1.03 | 1.02 | 0.934 | 0.905 | 0.849 | 0.355 | 0.347 | 0.337 | 0.34 | 0.347 | 0.627 | 0.487 | 0.482 | 0.396 | 0.456 |  |  |  |  |  |
| NCI-H1299 | 1.04 | 0.937 | 0.958 | 0.836 | 0.832 |  |  |  |  |  |  |  |  |  |  |  |  |  |  |  |
| SK-LU-1 | 1.03 | 0.778 | 0.711 | 0.536 | 0.634 | 0.305 | 0.302 | 0.311 | 0.248 | 0.265 | 0.572 | 0.483 | 0.442 | 0.384 | 0.392 |  |  |  |  |  |
| COR-L23 | 1.04 | 0.803 | 0.681 | 0.622 | 0.467 | 0.213 | 0.175 | 0.232 | 0.146 | 0.15 | 0.609 | 0.301 | 0.329 | 0.33 | 0.277 |  |  |  |  |  |
| NCI-H1650 | 0.68 | 0.486 | 0.553 | 0.453 | 0.374 | 0.267 | 0.283 | 0.241 | 0.205 | 0.326 | 0.442 | 0.285 | 0.474 | 0.294 | 0.236 |  |  |  |  |  |
| IA-LM | 0.426 | 0.529 | 0.376 | 0.185 | 0.184 |  |  |  |  |  |  |  |  |  |  |  |  |  |  |  |
| NCI-H2009 | 1.03 | 0.876 | 0.766 | 0.697 | 0.575 | 0.605 | 0.574 | 0.421 | 0.341 | 0.419 | 0.265 | 0.21 | 0.192 | 0.183 | 0.185 |  |  |  |  |  |
| NCI-H1563 | 0.992 | 1.02 | 0.876 | 0.935 | 0.794 |  |  |  |  |  |  |  |  |  |  |  |  |  |  |  |
| SK-MES-1 | 1.07 | 0.933 | 0.909 | 0.727 | 0.704 | 0.834 | 0.76 | 0.63 | 0.566 | 0.572 | 0.465 | 0.539 | 0.54 | 0.459 | 0.601 |  |  |  |  |  |
| UMC-11 | 0.884 | 0.641 | 0.566 | 0.517 | 0.432 | 0.19 | 0.193 | 0.194 | 0.181 | 0.177 | 0.653 | 0.569 | 0.471 | 0.377 | 0.301 |  |  |  |  |  |
| ABC-1 | 0.959 |  | 0.88 | 0.756 | 0.663 | 0.21 |  | 0.191 | 0.154 | 0.238 |  |  |  |  |  | 1.04 |  |  | 0.558 | 0.54 |
| SW 1573 | 0.965 | 0.603 | 0.477 | 0.42 | 0.357 | 0.177 | 0.179 | 0.145 | 0.142 | 0.176 | 0.487 | 0.354 | 0.362 | 0.255 | 0.25 |  |  |  |  |  |
| NCI-H1792 | 0.952 | 0.715 | 0.706 | 0.25 | 0.238 |  |  |  |  |  | 0.409 | 0.241 | 0.246 | 0.242 | 0.239 | 0.722 | 0.417 | 0.373 | 0.237 | 0.173 |
| NCI-H2023 | 0.868 | 0.665 | 0.502 | 0.458 | 0.288 | 0.251 | 0.289 | 0.217 | 0.182 | 0.215 | 0.46 | 0.373 | 0.403 | 0.228 | 0.234 |  |  |  |  |  |
| COR-L 105 | 0.935 | 0.807 | 0.734 | 0.696 | 0.571 | 0.333 | 0.356 | 0.281 | 0.305 | 0.294 | 0.409 | 0.491 | 0.427 | 0.43 | 0.369 |  |  |  |  |  |
